The record followed here is patent US20230391824A1, “RATIONALE, DESIGN, SYNTHESIS AND VALIDATION OF A SMALL MOLECULE ANTICANCER AGENT” (priority 2021, published 2023).

Like-named read-outs stand apart in the source and are kept apart here.

One data set is described as follows: Solubility. The class given is physicochemical.
Data set [1] relates to BHQ1-pre-let7a and EGFP-Lin28A bound complexes. The data set can be described thus: FRET assay, displacement of BHQ1-pre-let7a from EGFP-Lin28A. As to conditions: at 1 μM; 19B-let7a at 100 nM. The class given is binding. The procedure:
This method was adapted from Roos et al (2016). HEK 293-T cells (ATCC) were cultured as monolayers in DMEM GlutaMAX™-1 (Cat #31966-021, Gibco®, Life Technologies) supplemented with 10% of FBS (fetal bovine serum). Stable EGFP-Lin28A HEK 293-T cells were cultured as monolayers in DMEM supplemented with 10% of FBS (fetal bovine serum) and 0.5 mg/ml Geneticin G418 (10131-035, Life Technologies). Transfections were performed according to the manufacturer's protocol with […] (12252-011, Invitrogen, Life Technologies) for siRNAs and JetPEI (101-10, Polyplus transfections) was used for plasmid DNA. […]
160,000 HEK 293 T cells were seeded per well in 6 well plates and transfected with 320 ng pEGFP-C2-Lin28A plasmid according to the experimental setup with the reagents described above and cells were allowed to recover for 48h. […] The EGFP-lin28A| expressing cells were sorted using Fluorescence Activated Cell Sorting (FACS). Finally, larger colonies of individual clones were analyzed for expression levels of EGFP-Lin28A by performing the FRET assay. […]
FRET system (EGFP-Lin28A and 19B-let7a) treated with DMSO was used as positive control. […] The FRET measurements were obtained from the optimized fluorescence parameter. […] The average signal intensity and background fluorescence were corrected with compound self-fluorescence with and without binding buffer.

Another data set concerns NT-2 testicular tumor. The data set can be described thus: NT-2 testicular tumor xenograft in SCID mice. The class given is in vivo. The settings on record: male SCID mice; for growth of NT-2 tumors: every 2 days. The procedure: FIG. 14A-C: Male SCID NT-2 testicular tumor bearing mice treated with 4 mg/kg Compound of formula (I) (P1 version) via oral route of administration (P.O). […] Tumor areas were measured with a Vernier caliper (prior to each treatment cycle). Animals were euthanized when the control (0.1% DMSO:PBS) treated mice reached the defined endpoint of 225 mm^2. Data representative of at least 5 independent experiments. […] (B) is a graph depicting percentage change of tumour volume versus days after the first treatment. (C) is a graph depicting percentage survival versus days after the first treatment.
FIG. 15A-D: Male SCID NT-2 testicular tumor bearing mice treated with 4 mg/kg Compound of formula (I) (P1 version) via intraperitoneal route of administration (I.P). […] Tumor areas were measured with a Vernier caliper (prior to each treatment cycle). Animals were euthanized when the control (0.1% DMSO:PBS) treated mice reached the defined endpoint of 225 mm^2. Data representative of at least 5 independent experiments. […] (B) is a graph depicting percentage of tumour size versus days after the first treatment. (C) is a graph depicting percentage survival versus days after the first treatment. (D) is a photograph showing excised tumours.
FIG. 16A&B: Male SCID NT-2 testicular tumor bearing mice treated with 4 mg/kg Compound of formula (I) (P1 isomer) via intravenous route of administration (I.V). […] Tumor areas were measured with a Vernier caliper (prior to each treatment cycle). Animals were euthanized when the control (0.1% DMSO:PBS) treated mice reached the defined endpoint of 225 mm^2. Data representative of at least 5 independent experiments. (A) is a photograph showing excised tumours. (B) is graph depicting percentage of tumor size versus number of treatments.
All animal procedures were carried out in accordance with the guidelines of the Canadian Council on Animal Care and the NIH guidelines on the care and use of laboratory animals. All protocols were reviewed and approved by the Animal Care Committee of the University of Calgary (Protocol approval number: AC21-0147). Six- to eight-week-old female or male CB17 severe combined immunodeficiency (SCID) mice (Charles River Laboratories, Saint-Constant, QC, Canada) were subcutaneously injected in the right flank with 3×10^6 YP-MEL or NT-2 cells suspended in 0.1 mL sterile PBS. After tumor injection, animals with detectable tumor growth of at least 50 mm^2 were randomized into groups. The groups were treated with either 0.1% DMSO:PBS vehicle or 4 mg/kg of Compound of formula (I) dissolved in the vehicle, intraperitoneally (I.P), orally (P.O) or intravenously (I.V). Animals and respective cages were monitored for food and bedding supplies daily; doses were injected every 2 days and tumor areas were measured with a Vernier caliper (prior to each treatment cycle). When vehicle treated tumors reached the defined endpoint of 225 mm^2, every mouse in the group were euthanized. Tumors were excised and immediately imaged and processed for western blotting or fixed in paraformaldehyde for toxicology evaluation. (A)

`CC[C@H](C)[C@H](NC(=O)[C@H](Cc1ncc[nH]1)NC(=O)c1cccc(C(N)=O)c1)C(=O)Nc1ccc(O)c(-c2nc3ccccc3s2)c1` [Compound P1]: the solubility worked out at 100 mg/mL in the data set “Solubility” (DMSO, organic solvent or mixture, read-out: solubility in DMSO); 10 mM in the data set “Solubility” (organic solvent or mixture, DMSO, freeze dried, RP-HPLC purified P1, read-out: solubility in DMSO); 0.05 mM in the data set “Solubility” (water/PBS/culture medium, aqueous buffer, read-out: solubility in water/PBS/culture medium). In addition, in data set [1], the “reduction in FRET” value worked out at 70%. The “treated animals that survived tumor-free for 120 days” value with NT-2 testicular tumor (4 mg/kg I.P) is recorded as “at least 50%”. For the same compound, the “growth of NT-2 tumors” value with NT-2 testicular tumor (4 mg/kg I.P), with NT-2 testicular tumor (4 mg/kg I.V) and in the data set on NT-2 testicular tumor (4 mg/kg P.O) was “significantly reduced the growth” throughout. Moreover, the tumor shrinkage result with NT-2 testicular tumor (4 mg/kg I.V, with only 4 doses) is “in some cases showed complete shrinkage”.
